1 compound from paper PMC12656268, “Venom Peptides Across Asian and American Tarantulas Utilize Dual Pharmacology to Target Activation and Fast Inactivation of Voltage-Gated Sodium Channels” (Toxins, 2025) can be followed below.

One test concerns the target NaV1.3 (Homo sapiens, UniProt Q9NY46). Briefly: Slowing of fast inactivation of NaV1.3. Format: cell-based. The conditions noted are these: closed-state voltage protocol, current traces; concentrations up to those of IC50 curves. Here is the method:
Sodium channel currents were recorded from HEK293 cells expressing human NaV isoforms together with the β1 auxiliary subunit (SB Drug Discovery, Glasgow, UK) using the QPatch 16X automated whole-cell patch-clamp platform (Sophion Bioscience A/S, Ballerup, Denmark). The external recording solution contained (in mM) the following: 140 NaCl, 3 KCl, 1 CaCl2, 1 MgCl2, 0.1 CdCl2, 20 tetraethylammonium chloride (TEA-Cl), and 5 HEPES; pH was adjusted to 7.3 and osmolarity to 320 mOsm. The internal (pipette) solution consisted of (in mM) the following: 140 CsF, 10 NaCl, 10 HEPES, and 1/5 EGTA/CsOH, also adjusted to pH 7.3 and 320 mOsm. Cells were voltage-clamped at a holding potential of −80 mV, and inward Na^+ currents were evoked by 20 ms depolarizing pulses to 0 mV following a 200 ms hyperpolarizing prepulse to −120 mV. To obtain concentration–response curves, cells at holding potential were incubated for 5 min with increasing concentrations of Oa1a peptides. For determining the potency of Oa1a peptides to inhibit peak current, the maximum peak current within the 20 ms at 0 mV was measured. For determining the potency of Oa1a-NH2 to slow fast inactivation, peak current values were measured at 20 ms of the 0 mV depolarization step. Ion currents (INa) were plotted as I/Imax, where I = current value and Imax = highest current value within the experiment.
(§1) For calcium influx experiments, bioactivity comparisons between venom fractions and controls were based on the difference between the maximal and minimal fluorescence intensity values obtained from single-replicate assays. Electrophysiological data analysis was conducted using GraphPad Prism (version 8; GraphPad Software, San Diego, CA, USA). Nonlinear regression was applied to fit the concentration–response relationships using a variable Hill slope: log(inhibitor) versus normalized response for determining IC50 values, and log(agonist) versus normalized response for EC50 calculations. Reversibility and dissociation kinetics were analyzed by fitting data with a single-phase exponential decay model, while voltage-dependence of steady-state activation and inactivation parameters were derived from Boltzmann sigmoid fits of normalized conductance (G/Gmax) or current (I/Imax) values to determine the half-activation or half-inactivation voltages (V50). Data are expressed as mean ± SEM, where n represents the number of individual cells analyzed.

The next test addresses hNaV1.7 (Homo sapiens, UniProt Q15858). Briefly: hNaV1.7 peak current inhibition, automated whole-cell patch clamp (QPatch 16X). Type of test: cell-based. The procedure:
(§2) Unless otherwise specified, all cell culture reagents were obtained from Life Technologies (Carlsbad, CA, USA). The human neuroblastoma cell line SH-SY5Y (ATCC CRL-2266; Manassas, VA, USA) was maintained in RPMI medium supplemented with 15% fetal bovine serum (FBS) and 2 mM L-glutamine. HEK293 cells stably expressing human NaV channel isoforms together with the β1 auxiliary subunit (SB Drug Discovery, Glasgow, UK) were propagated in Minimal Essential Medium (MEM; Sigma-Aldrich, St. Louis, MO, USA) containing 10% FBS, 100 U/mL penicillin, 100 µg/mL streptomycin, 2 mM L-glutamine, and selective antibiotics (blasticidin, geneticin, and zeocin) at concentrations recommended by the supplier. […]
(§3) Sodium channel currents were recorded from HEK293 cells expressing human NaV isoforms together with the β1 auxiliary subunit (SB Drug Discovery, Glasgow, UK) using the QPatch 16X automated whole-cell patch-clamp platform (Sophion Bioscience A/S, Ballerup, Denmark). […] For determining the potency of Oa1a peptides to inhibit peak current, the maximum peak current within the 20 ms at 0 mV was measured. For determining the potency of Oa1a-NH2 to slow fast inactivation, peak current values were measured at 20 ms of the 0 mV depolarization step. […]
as §1, with “Electrophysiological data analysis was conducted using GraphPad Prism (version 8; GraphPad Software, San Diego, CA, USA). Nonlinear regression was applied to fit the concentration–response relationships using a variable Hill slope: log(inhibitor) versus normalized response for determining IC50 values, and log(agonist) versus normalized response for EC50 calculations.” left out
On the technique in general: The patch-clamp technique gives a direct electrical read-out from membranes.

For another test, the target named is hNaV1.1 (Homo sapiens, UniProt P35498). Briefly: hNaV1.1 peak current inhibition, automated whole-cell patch clamp (QPatch 16X). Type of test: cell-based. Here is the method: as §2, §3
as §1, with “Electrophysiological data analysis was conducted using GraphPad Prism (version 8; GraphPad Software, San Diego, CA, USA). Nonlinear regression was applied to fit the concentration–response relationships using a variable Hill slope: log(inhibitor) versus normalized response for determining IC50 values, and log(agonist) versus normalized response for EC50 calculations.” left out

A further test addresses hNaV1.4 (Homo sapiens, UniProt P35499). Briefly: hNaV1.4 peak current inhibition, automated whole-cell patch clamp (QPatch 16X). Type of test: cell-based. Here is the method:
as §2, §3
as §1, with “Electrophysiological data analysis was conducted using GraphPad Prism (version 8; GraphPad Software, San Diego, CA, USA). Nonlinear regression was applied to fit the concentration–response relationships using a variable Hill slope: log(inhibitor) versus normalized response for determining IC50 values, and log(agonist) versus normalized response for EC50 calculations.” left out

The subject of another test is hNaV1.1 to hNaV1.7. Briefly: NaV subtype preference across NaV1.1 to NaV1.7, patch clamp. The conditions noted are these: NaV1.1 to NaV1.7, closed-state voltage protocol. Format: cell-based, human. The procedure: Unless otherwise specified, all cell culture reagents were obtained from Life Technologies (Carlsbad, CA, USA). The human neuroblastoma cell line SH-SY5Y (ATCC CRL-2266; Manassas, VA, USA) was maintained in RPMI medium supplemented with 15% fetal bovine serum (FBS) and 2 mM L-glutamine. HEK293 cells stably expressing human NaV channel isoforms together with the β1 auxiliary subunit (SB Drug Discovery, Glasgow, UK) were propagated in Minimal Essential Medium (MEM; Sigma-Aldrich, St. Louis, MO, USA) containing 10% FBS, 100 U/mL penicillin, 100 µg/mL streptomycin, 2 mM L-glutamine, and selective antibiotics (blasticidin, geneticin, and zeocin) at concentrations recommended by the supplier. HEK293T cells expressing the human CaV3.2 channel (a generous gift from Prof. Emmanuel Bourinet, Institut de Génomique Fonctionnelle, Université de Montpellier, France, and Prof. Edward Perez-Reyes, University of Virginia School of Medicine, USA) were grown in Dulbecco’s MEM supplemented with 10% FBS, 100 U/mL penicillin, 100 µg/mL streptomycin, and 750 µg/mL geneticin.
Sodium channel currents were recorded from HEK293 cells expressing human NaV isoforms together with the β1 auxiliary subunit (SB Drug Discovery, Glasgow, UK) using the QPatch 16X automated whole-cell patch-clamp platform (Sophion Bioscience A/S, Ballerup, Denmark). The external recording solution contained (in mM) the following: 140 NaCl, 3 KCl, 1 CaCl2, 1 MgCl2, 0.1 CdCl2, 20 tetraethylammonium chloride (TEA-Cl), and 5 HEPES; pH was adjusted to 7.3 and osmolarity to 320 mOsm. The internal (pipette) solution consisted of (in mM) the following: 140 CsF, 10 NaCl, 10 HEPES, and 1/5 EGTA/CsOH, also adjusted to pH 7.3 and 320 mOsm. […] For determining the potency of Oa1a peptides to inhibit peak current, the maximum peak current within the 20 ms at 0 mV was measured. For determining the potency of Oa1a-NH2 to slow fast inactivation, peak current values were measured at 20 ms of the 0 mV depolarization step. […]
as §1, with “Electrophysiological data analysis was conducted using GraphPad Prism (version 8; GraphPad Software, San Diego, CA, USA). Nonlinear regression was applied to fit the concentration–response relationships using a variable Hill slope: log(inhibitor) versus normalized response for determining IC50 values, and log(agonist) versus normalized response for EC50 calculations.” left out

The subject of another test is NaV1.7. Briefly: Voltage dependence of steady-state inactivation and activation, NaV1.7. Type of test: cell-based, human. The procedure: The voltage dependence of steady-state activation was assessed by recording sodium currents evoked by depolarizing voltage steps ranging from −110 mV to +80 mV in 5 mV increments. Peak conductance (GNa) was derived using the equation G = I/(V − Vrev), where I denotes the measured current, V the applied membrane potential, and Vrev the sodium reversal potential. To evaluate the voltage dependence of steady-state fast inactivation, a two-pulse protocol was used. Cells were conditioned with 500 ms pre-pulses at potentials between −130 mV and −10 mV (10 mV increments), followed by a 20 ms test depolarization to 0 mV to elicit sodium currents. The steady-state fast inactivation currents were plotted as I/Imax, where I = current value and Imax = highest current value within the experiment. The voltage-dependence of steady-state activation and inactivation were determined either in the absence of peptide or following 5 min exposure to peptide at the respective IC50 concentration at the NaV subtype analyzed to streamline the investigation using an effective single concentration as previously described by us.
as §1

Positions of bridges follow the written chain, without caps; N, C: chain ends. Residues, ends and D or L forms follow the SMILES beside them. Bounds are passed on as bounds.

Sequence of hNaV1.7 (Q07699 19-218): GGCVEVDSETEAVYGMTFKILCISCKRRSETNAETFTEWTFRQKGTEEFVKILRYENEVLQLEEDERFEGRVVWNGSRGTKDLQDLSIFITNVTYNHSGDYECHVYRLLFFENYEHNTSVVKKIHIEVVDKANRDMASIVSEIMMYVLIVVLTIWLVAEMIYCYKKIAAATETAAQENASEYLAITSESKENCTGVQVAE
Sequence of hNaV1.7 (Q15858 whole entry, canonical isoform): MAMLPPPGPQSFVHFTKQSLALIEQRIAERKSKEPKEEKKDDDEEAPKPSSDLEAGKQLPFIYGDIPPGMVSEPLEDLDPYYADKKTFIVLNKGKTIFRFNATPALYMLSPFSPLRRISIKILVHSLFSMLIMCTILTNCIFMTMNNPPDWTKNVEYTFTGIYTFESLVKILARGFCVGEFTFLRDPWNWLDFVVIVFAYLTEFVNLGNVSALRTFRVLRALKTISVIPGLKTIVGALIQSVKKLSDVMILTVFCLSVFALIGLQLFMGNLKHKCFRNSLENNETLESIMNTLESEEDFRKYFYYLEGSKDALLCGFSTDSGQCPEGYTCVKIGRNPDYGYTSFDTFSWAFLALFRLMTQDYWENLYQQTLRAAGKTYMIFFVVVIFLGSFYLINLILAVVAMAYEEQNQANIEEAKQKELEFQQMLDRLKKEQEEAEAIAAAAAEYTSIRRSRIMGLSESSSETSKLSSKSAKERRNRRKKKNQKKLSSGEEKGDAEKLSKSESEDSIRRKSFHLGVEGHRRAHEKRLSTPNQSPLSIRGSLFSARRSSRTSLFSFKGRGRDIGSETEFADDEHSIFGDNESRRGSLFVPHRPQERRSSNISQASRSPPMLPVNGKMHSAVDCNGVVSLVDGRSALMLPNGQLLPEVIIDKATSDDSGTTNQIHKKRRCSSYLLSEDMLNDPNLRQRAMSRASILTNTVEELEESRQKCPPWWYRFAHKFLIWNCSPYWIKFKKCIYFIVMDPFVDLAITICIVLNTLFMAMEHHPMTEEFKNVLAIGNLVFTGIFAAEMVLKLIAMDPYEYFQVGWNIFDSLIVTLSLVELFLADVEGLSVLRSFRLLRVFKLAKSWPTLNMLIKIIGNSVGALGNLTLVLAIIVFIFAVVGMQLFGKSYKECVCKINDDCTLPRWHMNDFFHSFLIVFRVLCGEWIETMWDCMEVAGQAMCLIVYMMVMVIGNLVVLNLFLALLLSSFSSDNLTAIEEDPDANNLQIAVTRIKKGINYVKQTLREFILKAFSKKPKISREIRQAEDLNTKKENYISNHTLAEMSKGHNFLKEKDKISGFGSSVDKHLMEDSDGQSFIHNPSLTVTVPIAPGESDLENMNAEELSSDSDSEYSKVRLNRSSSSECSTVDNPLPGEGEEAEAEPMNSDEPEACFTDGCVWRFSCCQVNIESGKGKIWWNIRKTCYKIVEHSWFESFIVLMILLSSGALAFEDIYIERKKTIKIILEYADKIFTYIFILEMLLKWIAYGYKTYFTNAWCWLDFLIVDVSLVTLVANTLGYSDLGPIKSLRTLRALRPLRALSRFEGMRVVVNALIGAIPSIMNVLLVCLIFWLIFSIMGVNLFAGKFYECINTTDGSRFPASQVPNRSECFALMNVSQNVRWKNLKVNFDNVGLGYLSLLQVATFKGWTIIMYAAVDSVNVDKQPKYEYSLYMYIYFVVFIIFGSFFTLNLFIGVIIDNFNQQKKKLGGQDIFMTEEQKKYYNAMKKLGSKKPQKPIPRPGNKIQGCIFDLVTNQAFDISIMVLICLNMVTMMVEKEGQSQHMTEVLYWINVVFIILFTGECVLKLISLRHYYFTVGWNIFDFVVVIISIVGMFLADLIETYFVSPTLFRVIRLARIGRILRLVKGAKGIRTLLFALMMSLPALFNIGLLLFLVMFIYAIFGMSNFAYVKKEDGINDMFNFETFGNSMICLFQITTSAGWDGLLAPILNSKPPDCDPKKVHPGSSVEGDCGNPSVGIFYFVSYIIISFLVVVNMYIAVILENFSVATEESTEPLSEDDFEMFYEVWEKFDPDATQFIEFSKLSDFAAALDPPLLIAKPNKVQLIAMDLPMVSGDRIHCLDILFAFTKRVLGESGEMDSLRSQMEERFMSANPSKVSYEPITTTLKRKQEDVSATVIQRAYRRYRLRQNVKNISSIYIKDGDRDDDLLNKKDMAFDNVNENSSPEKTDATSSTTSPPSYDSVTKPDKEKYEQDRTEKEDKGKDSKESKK
Sequence of hNaV1.4 (P35499 whole entry): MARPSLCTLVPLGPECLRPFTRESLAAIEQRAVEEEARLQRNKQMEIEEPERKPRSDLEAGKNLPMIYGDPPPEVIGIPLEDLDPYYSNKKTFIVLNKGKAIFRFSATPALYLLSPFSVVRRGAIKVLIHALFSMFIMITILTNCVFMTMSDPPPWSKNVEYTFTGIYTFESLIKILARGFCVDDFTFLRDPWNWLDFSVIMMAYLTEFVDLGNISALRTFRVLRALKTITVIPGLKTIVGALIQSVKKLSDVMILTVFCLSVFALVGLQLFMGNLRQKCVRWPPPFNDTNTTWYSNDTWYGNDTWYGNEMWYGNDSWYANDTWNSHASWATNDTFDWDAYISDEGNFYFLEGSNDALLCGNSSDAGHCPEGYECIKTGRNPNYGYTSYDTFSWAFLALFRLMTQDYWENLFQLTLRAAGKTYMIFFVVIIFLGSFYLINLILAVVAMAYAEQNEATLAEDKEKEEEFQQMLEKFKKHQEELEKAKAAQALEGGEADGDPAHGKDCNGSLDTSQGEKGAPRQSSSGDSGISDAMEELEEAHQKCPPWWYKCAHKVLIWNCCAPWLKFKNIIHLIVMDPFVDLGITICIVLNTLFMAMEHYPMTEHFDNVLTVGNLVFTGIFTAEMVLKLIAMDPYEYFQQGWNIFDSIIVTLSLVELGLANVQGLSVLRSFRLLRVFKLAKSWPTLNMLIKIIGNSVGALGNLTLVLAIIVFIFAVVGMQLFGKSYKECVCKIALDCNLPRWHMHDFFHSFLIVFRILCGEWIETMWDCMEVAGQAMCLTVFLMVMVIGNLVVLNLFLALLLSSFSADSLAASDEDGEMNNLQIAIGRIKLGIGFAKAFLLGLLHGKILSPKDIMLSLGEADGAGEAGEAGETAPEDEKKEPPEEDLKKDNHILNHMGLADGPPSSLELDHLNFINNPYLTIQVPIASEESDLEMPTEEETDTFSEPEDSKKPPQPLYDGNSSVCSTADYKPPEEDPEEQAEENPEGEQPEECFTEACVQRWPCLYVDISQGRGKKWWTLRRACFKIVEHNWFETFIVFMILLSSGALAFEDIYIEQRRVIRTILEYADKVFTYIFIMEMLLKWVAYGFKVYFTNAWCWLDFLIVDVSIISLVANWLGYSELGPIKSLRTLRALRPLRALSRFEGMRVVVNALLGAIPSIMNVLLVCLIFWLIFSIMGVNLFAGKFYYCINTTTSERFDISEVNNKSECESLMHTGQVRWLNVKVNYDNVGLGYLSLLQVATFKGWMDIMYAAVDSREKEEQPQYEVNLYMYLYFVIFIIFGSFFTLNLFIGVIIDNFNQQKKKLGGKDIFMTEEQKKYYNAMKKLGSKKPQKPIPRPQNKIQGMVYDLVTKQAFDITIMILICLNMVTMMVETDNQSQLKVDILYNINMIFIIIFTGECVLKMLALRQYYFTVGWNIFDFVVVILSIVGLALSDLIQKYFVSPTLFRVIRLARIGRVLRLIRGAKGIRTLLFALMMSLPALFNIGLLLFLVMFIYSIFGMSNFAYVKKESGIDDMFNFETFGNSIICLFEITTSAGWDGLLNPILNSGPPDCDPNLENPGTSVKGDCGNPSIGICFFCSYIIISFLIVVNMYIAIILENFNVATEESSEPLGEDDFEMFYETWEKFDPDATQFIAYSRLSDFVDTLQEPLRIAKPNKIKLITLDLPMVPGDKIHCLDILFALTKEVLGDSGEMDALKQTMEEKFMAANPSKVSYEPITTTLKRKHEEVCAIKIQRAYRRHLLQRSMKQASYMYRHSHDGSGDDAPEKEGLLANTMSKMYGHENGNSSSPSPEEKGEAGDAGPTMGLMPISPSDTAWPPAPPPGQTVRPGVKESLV
Sequence of hNaV1.4 (Q07699 19-218, further chain): as the sequence (Q07699 19-218) above

On to `CC(C)C[C@@H]1NC(=O)[C@H](Cc2ccccc2)NC(=O)[C@H](Cc2ccc(O)cc2)NC(=O)[C@H](CCCNC(=N)N)NC(=O)[C@@H](NC(=O)[C@@H](N)CCC(=O)O)CSSC[C@@H]2NC(=O)[C@@H]3CSSC[C@@H](C(=O)N[C@H](C(=O)N[C@@H](Cc4c[nH]c5ccccc45)C(=O)N[C@@H](CC(=O)O)C(=O)N[C@@H](Cc4c[nH]c5ccccc45)C(=O)N[C@H](C(=O)N[C@@H](Cc4ccccc4)C(=O)O)[C@@H](C)O)C(C)C)NC(=O)[C@H](Cc4c[nH]c5ccccc45)NC(=O)[C@H](CCC(N)=O)NC(=O)[C@H](Cc4c[nH]cn4)NC(=O)[C@H](CCCCN)NC(=O)[C@H](CC(N)=O)NC(=O)[C@H](Cc4c[nH]cn4)NC(=O)[C@H](CSSC[C@H](NC(=O)CNC(=O)CNC1=O)C(=O)N[C@@H](CO)C(=O)N[C@@H](CCC(N)=O)C(=O)NCC(=O)N[C@@H](CCC(=O)O)C(=O)N[C@@H](CCCCN)C(=O)N3)NC(=O)[C@H](C(C)C)NC(=O)[C@H](CC(C)C)NC(=O)[C@H](Cc1c[nH]cn1)NC(=O)[C@H](CCC(=O)O)NC2=O` [sOa1a-OH] (H-ECRYFLGGCSQGEKCCEHLVCHNKHQWCVWDWTF-OH; disulfide 2-16, 9-21, 15-28; N-terminus assumed), for which the “Slowing of fast inactivation of NaV1.3 (in words)” value on NaV1.3 is on record as “this dual modulatory activity was not observed”. For the same compound, the IC50 (commonly the concentration needed to halve the response being measured) on hNaV1.7 (HEK293 + β1, holding −80 mV, 20 ms step to 0 mV from −120 mV 200 ms prepulse, 5 min incubation, mean ± SEM, 3 to 9 independent experiments, read-out: IC50, inhibition of peak current, NaV1.7) is 410 ± 23 nM; at hNaV1.1 (HEK293 + β1, holding −80 mV, 20 ms step to 0 mV from −120 mV 200 ms prepulse, 5 min incubation, mean ± SEM, 3 to 9 independent experiments, read-out: IC50, inhibition of peak current, NaV1.1), 274 ± 18 nM; at hNaV1.4 (HEK293 + β1, holding −80 mV, 20 ms step to 0 mV from −120 mV 200 ms prepulse, 5 min incubation, mean ± SEM, 3 to 9 independent experiments, read-out: IC50, inhibition of peak current, NaV1.4) it was greater than 3000 nM. On hNaV1.7 (ratio of IC50 values), the “Ratio OH/NH2 (IC50 sOa1a-OH / IC50 sOa1a-NH2), NaV1.7” value was determined as 16. Further, at hNaV1.1 (ratio of IC50 values), the “Ratio OH/NH2 (IC50 sOa1a-OH / IC50 sOa1a-NH2), NaV1.1” value was 16. Also, the “Activity on NaV1.4 (in words)” value on hNaV1.4 (tested at up to 3 μM) is recorded as “no activity”. The “NaV subtype preference of inhibition (in words)” value in the test on hNaV1.1 to hNaV1.7 is “strong preference for inhibiting NaV1.1”. In addition, the “V50 of steady-state activation in presence of peptide, NaV1.7” value with NaV1.7 (control V50 = −28 ± 0.5 mV (sOa1a-NH2 experiment), −25 ± 0.7 mV (sOa1a-OH experiment), 5 min at IC50 concentration, mean ± SEM, 3 to 5 repeats) is recorded as −22 mV. In addition, in the test on NaV1.7 (control V50 = −66 ± 0.7 mV (sOa1a-NH2 experiment), −66 ± 0.3 mV (sOa1a-OH experiment), 5 min at IC50 concentration, mean ± SEM, 3 to 5 repeats), the “V50 of steady-state inactivation in presence of peptide, NaV1.7” value is −71 mV. Further, the “Effect on current–voltage relationships (activation, steady-state inactivation), NaV1.7” value with NaV1.7 (peptide at IC50 concentration) is “remained nearly unaltered”.
